# Reference: ChEMBL document CHEMBL1151438, “In vitro resistance study of rupintrivir, a novel inhibitor of human rhinovirus 3C protease” (Antimicrob Agents Chemother, 2007)
# Experiments:
# [1] = tested on: rhinovirus B14; test: Ratio of EC50 for HRV14 with 3C protease with T129A, T131T/A, T143P mutation infected in human H1-HeLa cells after 5 passages for 22 days to EC50 for wild type HRV14 infected in human H1-HeLa cells; type: functional
# [2] = tested on: rhinovirus B14; test: Ratio of EC50 for HRV14 infected in human H1-HeLa cells after 4 passages for 17 days to EC50 for wild type HRV14 infected in human H1-HeLa cells; type: functional
# [3] = tested on: rhinovirus B14; test: Ratio of EC50 for HRV14 infected in human H1-HeLa cells after 11 passages for 65 days to EC50 for wild type HRV14 infected in human H1-HeLa cells; type: functional
# [4] = tested on: rhinovirus B14; test: Ratio of EC50 for HRV14 with 3C protease T131A mutation infected in human H1-HeLa cells to EC50 for wild type HRV14 infected in human H1-HeLa cells; type: functional
# [5] = tested on: rhinovirus A39; test: Antiviral activity against HRV39 with 3C protease […], L136/F mutation infected in human H1-HeLa cells assessed as virus-induced cytopathic effect after 5 passages for 29 days by XTT assay; type: functional, organism-based; conditions: Rhinovirus A, 696 h
# [6] = tested on: rhinovirus B14; test: Ratio of EC50 for HRV14 with 3C protease T143P mutation infected in human H1-HeLa cells to EC50 for wild type HRV14 infected in human H1-HeLa cells; type: functional
# [7] = tested on: Human rhinovirus sp.; test: Ratio of EC50 for HRV Hanks with 3C protease T130A mutation infected in human H1-HeLa cells after 6 passages for 40 days to EC50 for wild type HRV Hanks infected in human H1-HeLa cells; type: functional
# [8] = tested on: rhinovirus B14; test: Ratio of EC50 for HRV14 with 3C protease T129A mutation infected in human H1-HeLa cells to EC50 for wild type HRV14 infected in human H1-HeLa cells; type: functional
# [9] = tested on: Human rhinovirus sp.; test: Antiviral activity against HRV Hanks with 3C protease T130A mutation infected in human H1-HeLa cells assessed as virus-induced cytopathic effect after 6 passages for 40 days by plaque reduction assay; type: functional, organism-based
# [10] = tested on: rhinovirus B14; test: Antiviral activity against HRV14 with 3C protease T129A, T131A, Y139H, T143P mutation infected in human H1-HeLa cells assessed as virus-induced cytopathic effect after 3 days by XTT assay; type: functional, organism-based; conditions: Rhinovirus B, 72 h
# [11] = tested on: rhinovirus A2; test: Ratio of EC50 for HRV2 with 3C protease N165T mutation infected in human H1-HeLa cells after 5 passages for 30 days to EC50 for wild type HRV2 infected in human H1-HeLa cells; type: functional
# [12] = tested on: rhinovirus A2; test: Ratio of EC50 for HRV2 infected in human H1-HeLa cells after 7 passages for 45 days to EC50 for wild type HRV2 infected in human H1-HeLa cells; type: functional
# [13] = tested on: rhinovirus B14; test: Ratio of EC50 for HRV14 infected in human H1-HeLa cells after 5 passages for 22 days to EC50 for wild type HRV14 infected in human H1-HeLa cells; type: functional
# [14] = tested on: rhinovirus A2; test: Antiviral activity against HRV2 with 3C protease E3E/G, A103A/V, N165T mutation infected in human H1-HeLa cells assessed as virus-induced cytopathic effect after 9 passages for 62 days by XTT assay; type: functional, organism-based; conditions: Rhinovirus A
# [15] = tested on: rhinovirus A39; test: Ratio of EC50 for HRV39 infected in human H1-HeLa cells after 6 passages for 33 days to EC50 for wild type HRV39 infected in human H1-HeLa cells; type: functional
# [16] = tested on: rhinovirus B14; test: Ratio of EC50 for HRV14 infected in human H1-HeLa cells after 12 passages for 72 days to EC50 for wild type HRV14 infected in human H1-HeLa cells; type: functional
# [17] = tested on: rhinovirus A2; test: Ratio of EC50 for HRV2 infected in human H1-HeLa cells after 10 passages for 66 days to EC50 for wild type HRV2 infected in human H1-HeLa cells; type: functional
# [18] = tested on: rhinovirus B14; test: Antiviral activity against HRV14 with 3C protease Y139H mutation infected in human H1-HeLa cells assessed as virus-induced cytopathic effect after 3 days by XTT assay; type: functional, organism-based; conditions: Rhinovirus B, 72 h
# [19] = tested on: rhinovirus B14; test: Ratio of EC50 for HRV14 infected in human H1-HeLa cells after 10 passages for 55 days to EC50 for wild type HRV14 infected in human H1-HeLa cells; type: functional
# [20] = tested on: rhinovirus B14; test: Antiviral activity against HRV14 with 3C protease T129A, T131T/A, T143P mutation infected in human H1-HeLa cells assessed as virus-induced cytopathic effect after 5 passages for 22 days by XTT assay; type: functional, organism-based; conditions: Rhinovirus B, 528 h
# [21] = tested on: rhinovirus A2; test: Ratio of EC50 for HRV2 with 3C protease N165T mutation infected in human H1-HeLa cells after 6 passages for 37 days to EC50 for wild type HRV2 infected in human H1-HeLa cells; type: functional
# [22] = tested on: rhinovirus A2; test: Antiviral activity against HRV2 with 3C protease N165T mutation infected in human H1-HeLa cells assessed as virus-induced cytopathic effect after 4 passages for 24 days by XTT assay; type: functional, organism-based; conditions: Rhinovirus A, 576 h
# [23] = tested on: Human rhinovirus sp.; test: Ratio of EC50 for HRV Hanks infected in human H1-HeLa cells after 3 passage for 35 days to EC50 for wild type HRV Hanks infected in human H1-HeLa cells; type: functional
# [24] = tested on: rhinovirus A39; test: Ratio of EC50 for HRV39 infected in human H1-HeLa cells after 9 passages for 50 days to EC50 for wild type HRV39 infected in human H1-HeLa cells; type: functional
# [25] = tested on: rhinovirus B14; test: Antiviral activity against HRV14 with 3C protease T129A mutation infected in human H1-HeLa cells assessed as virus-induced cytopathic effect after 3 days by XTT assay; type: functional, organism-based; conditions: Rhinovirus B, 72 h
# [26] = tested on: rhinovirus A39; test: Ratio of EC50 for HRV39 infected in human H1-HeLa cells after 4 passages for 24 days to EC50 for wild type HRV39 infected in human H1-HeLa cells; type: functional
# [27] = tested on: rhinovirus B14; test: Antiviral activity against wild type HRV14 infected in human H1-HeLa cells assessed as virus-induced cytopathic effect after 3 days by XTT assay; type: functional, organism-based; conditions: Rhinovirus B, 72 h
# [28] = tested on: rhinovirus B14; test: Ratio of EC50 for HRV14 with 3C protease T129T/A, T131T/A, T143P/S mutation infected in human H1-HeLa cells after 3 passages for 14 days to EC50 for wild type HRV14 infected in human H1-HeLa cells; type: functional
# [29] = tested on: rhinovirus B14; test: Ratio of EC50 for HRV14 with 3C protease with A121A/V, T129A, T131A, T143P, Y139Y/H mutation infected in human H1-HeLa cells after 11 passages for 65 days to EC50 for wild type HRV14 infected in human H1-HeLa cells; type: functional
# [30] = tested on: rhinovirus A2; test: Ratio of EC50 for HRV2 infected in human H1-HeLa cells after 4 passages for 24 days to EC50 for wild type HRV2 infected in human H1-HeLa cells; type: functional
# [31] = tested on: Human rhinovirus sp.; test: Ratio of EC50 for HRV Hanks infected in human H1-HeLa cells after 9 passage for 59 days to EC50 for wild type HRV Hanks infected in human H1-HeLa cells; type: functional
# [32] = tested on: rhinovirus B14; test: Ratio of EC50 for HRV14 infected in human H1-HeLa cells after 6 passages for 27 days to EC50 for wild type HRV14 infected in human H1-HeLa cells; type: functional
# [33] = tested on: rhinovirus B14; test: Antiviral activity against 0.02 MOI wild type HRV14 infected in human H1-HeLa cells assessed as cell killing after 3 days by XTT assay; type: functional
smiles,measurement,setting,value
CCOC(=O)/C=C/[C@H](C[C@@H]1CCNC1=O)NC(=O)[C@@H](CC(=O)[C@@H](NC(=O)c1cc(C)on1)C(C)C)Cc1ccc(F)cc1 [RUPINTRIVIR],Ratio EC50,[1],5
same,Ratio EC50,[2],10
same,Ratio EC50,[3],90
same,Ratio EC50,[4],1
same,EC50,[5],83 nM
same,Ratio EC50,[6],1
same,Ratio EC50,[7],3
same,Ratio EC50,[8],1
same,EC50,[9],51 nM
same,EC50,[10],268 nM
same,Ratio EC50,[11],2
same,Ratio EC50,[12],5
same,Ratio EC50,[13],20
same,EC50,[14],140 nM
same,Ratio EC50,[15],6
same,Ratio EC50,[16],90
same,Ratio EC50,[17],15
same,EC50,[18],14 nM
same,Ratio EC50,[19],90
same,EC50,[20],96 nM
same,Ratio EC50,[21],2
same,EC50,[22],44 nM
same,Ratio EC50,[23],2
same,Ratio EC50,[24],6
same,EC50,[25],14 nM
same,Ratio EC50,[26],6
same,EC50,[27],21 nM
same,Ratio EC50,[28],7
same,Ratio EC50,[29],16
same,Ratio EC50,[30],5
same,Ratio EC50,[31],3
same,Ratio EC50,[32],20
same,Activity,[33],90.2%
